Measurements published in patent publication US11098081B2, “Epitope tag and method for detection and/or purification of tagged polypeptides” (ChromoTek GmbH, priority 2015, dated 2021).
Ends that are not written are not given here.

Assays:
[1] = tested on: BC2-Nb; experiment: Biolayer interferometry of immobilised biotinylated BC2T peptides with BC2-Nb; type: binding, Vicugna pacos; settings: for kon (M^−1s^−1): association rate constant; for Kd: biotinylated peptide on Streptavidin biosensor, BC2-Nb 5-50 nM, 1:1 binding model; for koff (s^−1): dissociation rate constant
Method: Biolayer interferometry (BLI)-based affinity measurements were used to assess two improved variations of the original BC2T sequence (a: […], pTag1 SEQ ID NO:33, b. […], pTag2 SEQ ID NO:34) in comparison with the original BC2T sequence (c: BC2T SEQ ID NO:4) BC2T and improved variations thereof were synthesized as peptides with an N-terminal biotin attached through an ethylene glycol linker and immobilised on Streptavidin biosensors. Binding kinetics were analysed by incubating immobilised peptides with 4-5 concentrations of BC2-Nb (5-50 nM) and evaluated using a 1:1 binding model.
Listed are the dissociation constant (KD), the association […] and dissociation (koff) rate constants and markers of the quality of fit of a 1:1 binding model (χ^2, R^2). The constants reported for original BC2T differ from those listed in Table 1 because kinetics were analysed using a different method.
The affinity measurements of BC2-Nb to BC2T and improved variations pTag1 and pTag2 were performed using biolayer interferometry using a BLItz system instrument (fortéBIO). Biotinylated peptide of BC2T and its variations were immobilised on Streptavidin biosensors (fortéBIO). The loaded sensor was sequentially dipped into BLItz buffer (phosphate buffered saline, 0.1% (m/v) BSA, 0.02% (v/v) Tween20) for 120 s to determine base line signal, in a solution of BC2-Nb in BLItz buffer (concentration of 5-50 nM) for 120 s to determine association and in BLItz buffer for 600 s to determine dissociation. The shaking rate was 1200 rpm. As a reference, each peptide was also incubated with BLItz buffer only according to the protocol above. In a control experiment, Streptavidin biosensors were incubated with BC2-Nb without prior peptide immobilisation. The sensor was regenerated by sequential dips into 10 mM glycine pH 2.0 and BLItz buffer (repeated three times). Raw data were analysed using the software BLItz Pro (fortéBio) and a 1:1 binding model.

[2] = tested on: BC2 nanotrap; experiment: Immunoprecipitation of BC2-tagged proteins from HEK293T cell lysates with the BC2 nanotrap; type: binding; settings: soluble protein fraction of HEK293T cells, immunoblot
Method: (d) The BC2 nanotrap binds BC2-tagged proteins from human cell lysates irrespectively whether the BC2 tag is located at the N- or the C-terminus. For immunoprecipitation of BC2-tagged proteins soluble protein fractions of HEK293T cells expressing BC2TeGFP, eGFPBC2T or solely eGFP were incubated with the BC2 nanotrap as described in (a). Input (I), non-bound (NB) and bound fractions (B) were separated by SDS-PAGE and visualized either by Coomassie Blue staining (top) or immunoblot analysis (bottom).
(a) For immunoprecipitation soluble protein fractions of HEK293T cells either expressing eGFP-PCNA (control) or BC2-tagged eGFP-PCNA (eGFP-PCNABC2T) (left panel) or mCherry-Vimentin (mCherry-VIM, control) or BC2-lagged mCherry-VIM (mCherry-VIMBC2T) were incubated with the BC2 nanotrap. Input (I), non-bound (NB) and bound fractions (B) were separated by SDS-PAGE and visualized either by immunoblot analysis using anti-PCNA or anti-Vimentin antibodies (upper panel). As loading control, blots were probed with an anti-GAPDH antibody (lower panel).
The BC2-capture system was further analyzed for one-step purification of recombinant proteins derived from human cells Specifically, it was investigated whether the terminal position of the BC2-tag has an impact on binding. […]
Next, it was tested whether the BC2 nanotrap can precipitate BC2-tagged cellular components of the intermediate filaments or the nuclear replication machinery BC2T was genetically fused either to mCherry-vimentin (mCherry-VIMBC2T) or eGFP-PCNA (eGFP-PCNABC2T) and both constructs were expressed in HEK293T cells. […] Soluble protein extracts were incubated with the BC2 nanotrap and whole lysate (input), non-bound and bound fractions were analyzed by immunoblotting using anti-vimentin or anti-PCNA antibodies. […]
HEK293T cells transiently expressing eGFP, eGFPBC2T or BC2TeGFP, eGFP-PCNA, eGFP-PCNABC2T, mCherry-Vimentin, mCherry-VimentinBC2T were washed and harvested in phosphate buffered saline (PBS), snap-frozen in liquid nitrogen and stored at −20° C. Cell pellets were homogenized in 200 μl lysis buffer (10 mM Tris/Cl pH 7.3, 150 mM NaCl, 0.5% NP40, 1 μg DNaseI, 2 mM MgCl2, 2 mM PMSF, 1× protease inhibitor mix M (Serva) by repealed pipetting for 40 min on ice. After a centrifugation step (10 min at 18.000×g) the protein concentration of each lysate was determined using a Pierce BCA Protein Assay Kit (Thermo Fisher Scientific) according to manufacturer's protocol and the protein solutions were adjusted with dilution buffer (10 mM Tris/Cl pH 7.5, 150 mM NaCl, 2 mM PMSF) to a concentration of 1 mg/ml, 2% of the supernatant were added to SDS-containing sample buffer (referred to as input). […] Samples were analyzed by SDS-PAGE followed by immunoblotting. […]

[3] = tested on: BC2 nanotrap; experiment: Immunoprecipitation of BC2-tagged GFP from E. coli lysate with the BC2 nanotrap; type: binding; settings: soluble protein fraction of E. coli, SDS-PAGE, Coomassie and/or anti-GFP immunoblot
[4] = tested on: BC2 nanotrap; experiment: Elution of bound BC2-tagged protein from the BC2 nanotrap; type: binding; settings: for GFPBC2T detected in elution fraction: competitive elution
Method: […] Aliquots of released (R) and bound (B) fractions were analyzed by immunoblotting with an anti-GFP antibody.
For the elution experiments 40 μl of BC2 nanotrap (slurry) were incubated with 400 μl soluble protein extract (c=1 mg/ml) derived from E. coli cells expressing GFPBC2T for 1 h at 4° C. on an end-over-end rotor. After a centrifugation step (2500×g, 4° C., 2 min) the supernatant was discarded and the beads were washed four times in ice-cold PBS including a cup change after the second washing step. Subsequently, beads were pelleted and incubated with 80 μl of the indicated elution conditions for 15 min at RT. […] 0.1 mM or 1 mM BC2-peptide dissolved in 0.2 M Tris/Cl pH 7.4, 150 mM NaCl; acidic elution: 0.2 M Glycine-HCl adjusted to pH 1. pH 2 or pH 3; alkaline elution: 0 mM. 1 mM, 10 mM or 100 mM NaOH; elution with sodium thiocyanate. 0 M, 1 M, 2 M, or 3 M NaSCN. The eluates were collected and boiled in 1×SDS containing sample buffer and the remaining beads were washed twice in PBS before boiling in 40 μl 2× sample buffer. 10% of each elution (release, R) and bead bound (bound, B) fraction were analyzed by SDS-PAGE and immunoblotting using an anti-GFP antibody.

BC2-Nb, sequence (as listed by the source): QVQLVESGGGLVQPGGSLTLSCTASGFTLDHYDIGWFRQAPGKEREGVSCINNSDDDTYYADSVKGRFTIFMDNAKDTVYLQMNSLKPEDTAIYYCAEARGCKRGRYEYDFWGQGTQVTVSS
BC2 nanotrap, sequence (as listed by the source): as above

Substance: ADRVRAVSHWSS [pTag2]
- kon (M^−1s^−1) [1]: 1.1 ± 0.1 × 10^5 M^−1s^−1
- Kd [1]: 1.9 nM
- koff (s^−1) [1]: 2.0 ± 0.1 × 10^−4 s^−1

Substance: BC2TeGFP: modified GFP comprising the BC2-tag on the N-terminus, expressed in HEK293T cells (PDRKAAVSHWQQ-eGFP; also: BC2 tag fused to the N-terminus of eGFP)
- precipitation by the BC2 nanotrap from HEK293T lysate [2]: efficiently precipitated

Substance: GFPBC2T-8: GFP C-terminally fused to BC2T-8 ({GFP}-RKAAVSHW; also: BC2T-8 tag fused to the C-terminus of GFP)
- precipitation by the BC2 nanotrap from E. coli lysate [3]: in a comparable manner as GFP tagged with the original BC2T

Substance: GFPBC2T-10: GFP C-terminally fused to BC2T-10 ({GFP}-PDRKAAVSHW; also: BC2T-10 tag fused to the C-terminus of GFP)
- precipitation by the BC2 nanotrap from E. coli lysate [3]: in a comparable manner as GFP tagged with the original BC2T

Substance: GFPBC2T: GFP with a C-terminal BC2 tag, expressed in E. coli
- precipitation by the BC2 nanotrap from E. coli lysate [3]: quantitatively precipitates
- elution with MgCl2 ([4]; MgCl2 0.5 M-4 M, data not shown): does not elute
- release of bound protein ([4]; alkaline elution, pH 11 and 12): 40-80%

Substance: PDRKAAVSHW (Epitope peptide 10 aa) [BC2T-10]
- precipitation by the BC2 nanotrap from E. coli lysate [3]: efficiently recognized

Substance: PDRKAAVSHWQQ [BC2T]
- kon (M^−1s^−1) [1]: 1.9 ± 0.1 × 10^5 M^−1s^−1
- Kd [1]: 2.6 nM
- koff (s^−1) [1]: 5.0 ± 0.1 × 10^−4 s^−1
- GFPBC2T detected in elution fraction ([4]; 0.1 mM BC2 peptide): ~60%
- GFPBC2T detected in elution fraction ([4]; 1 mM BC2 peptide): ~80%

Substance: PDRVRAVSHWSS [pTag1]
- dissociation rate constant koff slower than for original BC2T [1]: 7 ×
- kon (M^−1s^−1) [1]: 9.2 ± 0.5 × 10^4 M^−1s^−1
- Kd [1]: 0.7 nM
- koff (s^−1) [1]: 6.8 ± 0.4 × 10^−5 s^−1

Substance: RKAAVSHW (Epitope peptide 8 aa) [BC2T-8]
- precipitation by the BC2 nanotrap from E. coli lysate [3]: efficiently recognized

Substance: eGFP-PCNABC2T: BC2T genetically fused to the C-terminus of eGFP-PCNA
- precipitation by the BC2 nanotrap from HEK293T lysate [2]: efficiently precipitated

Substance: eGFPBC2T: modified GFP comprising the BC2-tag on the C-terminus, expressed in HEK293T cells (eGFP-PDRKAAVSHWQQ; also: BC2 tag fused to the C-terminus of eGFP)
- precipitation by the BC2 nanotrap from HEK293T lysate [2]: efficiently precipitated

Substance: mCherry-VIMBC2T: BC2T genetically fused to the C-terminus of mCherry-Vimentin
- precipitation by the BC2 nanotrap from HEK293T lysate [2]: efficiently precipitated
